Measurements as given in patent publication US20210060121A1, “NOVEL ANTIBIOTICS AND METHODS OF USING THEM” (priority 2018, published 2021).
In brackets after ≈: the same amount, converted by molar mass.

What was measured:
MRSA SA11 = format: cell-based, Staphylococcus aureus
Description: (§1) Susceptibility to teixobactin and its analogues was tested on the selected Gram-positive strains using Tecan Freedom EVO high-throughput automated platform, following the standard broth dilution method as described by the Clinical and Laboratory Standards Institute ^3. MICS were determined according to CLSI guideline.

MRSA SA86 = format: cell-based, Staphylococcus aureus
Description: as §1

MRSA SA88 = format: cell-based, Staphylococcus aureus
Description: as §1

MRSA(SA11I4) = format: cell-based, Staphylococcus aureus
Description: as §1

SA (ATCC29213) = format: cell-based, Staphylococcus aureus
Description: as §1

Enterococcus ATCCET = format: cell-based
Description: as §1

Enterococcus ET60 = format: cell-based
Description: as §1

Enterococcus ET6 = format: cell-based
Description: as §1

[1] = test system: Streptococcus faecalis SF; format: cell-based
Description: as §1

MRSA and SA strains = test: MIC, summary over S. aureus strains; format: cell-based, Staphylococcus aureus; details: against MRSA and SA strains; Table 2
Description: as §1

[2] = test system: Streptococcus faecalis and Enterococcus strains; test: MIC, text summary over Streptococcus faecalis and Enterococcus; format: cell-based; details: against Streptococcus faecalis and Enterococcus strains; Table 2
Description: as §1

Minimum inhibitory concentration (MIC) MRSA SA11 (MRSA SA11): 4 mg/L (≈ 3.19 µM)
Minimum inhibitory concentration (MIC) MRSA SA86 (MRSA SA86): 4 mg/L (≈ 3.19 µM)
Minimum inhibitory concentration (MIC) MRSA SA88 (MRSA SA88): 4 mg/L (≈ 3.19 µM)
Minimum inhibitory concentration (MIC) MRSA(SA11I4) (MRSA(SA11I4)): 8 mg/L (≈ 6.38 µM)
Minimum inhibitory concentration (MIC) SA (ATCC29213) (SA (ATCC29213)): 4 mg/L (≈ 3.19 µM)
Minimum inhibitory concentration (MIC) Enterococcus ATCCET (Enterococcus ATCCET): 2 mg/L (≈ 1.6 µM)
Minimum inhibitory concentration (MIC) Enterococcus ET60 (Enterococcus ET60): 1 mg/L (≈ 0.798 µM)
Minimum inhibitory concentration (MIC) Enterococcus ET6 (Enterococcus ET6): 2 mg/L (≈ 1.6 µM)
Minimum inhibitory concentration (MIC) Streptococcus faecalis SF [1]: 1 mg/L (≈ 0.798 µM)
Structure (SMILES): CC[C@@H](C)[C@@H](NC(=O)[C@@H](CCC(N)=O)NC(=O)[C@@H](NC(=O)[C@@H](NC(=O)[C@@H](Cc1ccccc1)NC)[C@@H](C)CC)[C@@H](C)CC)C(=O)N[C@H](C(=O)N[C@@H](CO)C(=O)N[C@H]1C(=O)N[C@@H](C)C(=O)N[C@@H](C2CCCCC2)C(=O)N[C@@H]([C@@H](C)CC)C(=O)O[C@H]1C)[C@@H](C)CC [T88]
Activities, times lower than teixobactin (MRSA and SA strains): about 4 times
Activities compared with teixobactin [2]: better than teixobactin
